{
  "source": "patent US20040259082A1",
  "key": {"T7 Sequenase 2.0": {"target": "T7 Sequenase 2.0 (Escherichia phage T7, UniProt P00581, DEL118-145)", "conditions": "dATP, dCTP, dGTP plus AA-dUTP", "description": "Samples contain dATP, dCTP, dGTP and either dUTP (first lane of each enzyme) or AA-dUTP (second lane each enzyme). Arrows indicate the extension products."}, "Klenow": {"target": "Klenow (Escherichia coli, UniProt P00582)", "test": "Charged nucleobase (aminoallyl-dUTP) as polymerase substrate", "format": "biochemical", "conditions": "dATP, dCTP, dGTP plus AA-dUTP", "experimental": "(§1) Arrows indicate the extension products.\n(§2) Charged Nucleobase as a Polymerase Substrate. […] Aminoallyl-dUTP was tested with 4 different polymerases."}, "Taq": {"target": "Taq (Thermus aquaticus, UniProt P19821)", "sequence (P19821 whole entry)": "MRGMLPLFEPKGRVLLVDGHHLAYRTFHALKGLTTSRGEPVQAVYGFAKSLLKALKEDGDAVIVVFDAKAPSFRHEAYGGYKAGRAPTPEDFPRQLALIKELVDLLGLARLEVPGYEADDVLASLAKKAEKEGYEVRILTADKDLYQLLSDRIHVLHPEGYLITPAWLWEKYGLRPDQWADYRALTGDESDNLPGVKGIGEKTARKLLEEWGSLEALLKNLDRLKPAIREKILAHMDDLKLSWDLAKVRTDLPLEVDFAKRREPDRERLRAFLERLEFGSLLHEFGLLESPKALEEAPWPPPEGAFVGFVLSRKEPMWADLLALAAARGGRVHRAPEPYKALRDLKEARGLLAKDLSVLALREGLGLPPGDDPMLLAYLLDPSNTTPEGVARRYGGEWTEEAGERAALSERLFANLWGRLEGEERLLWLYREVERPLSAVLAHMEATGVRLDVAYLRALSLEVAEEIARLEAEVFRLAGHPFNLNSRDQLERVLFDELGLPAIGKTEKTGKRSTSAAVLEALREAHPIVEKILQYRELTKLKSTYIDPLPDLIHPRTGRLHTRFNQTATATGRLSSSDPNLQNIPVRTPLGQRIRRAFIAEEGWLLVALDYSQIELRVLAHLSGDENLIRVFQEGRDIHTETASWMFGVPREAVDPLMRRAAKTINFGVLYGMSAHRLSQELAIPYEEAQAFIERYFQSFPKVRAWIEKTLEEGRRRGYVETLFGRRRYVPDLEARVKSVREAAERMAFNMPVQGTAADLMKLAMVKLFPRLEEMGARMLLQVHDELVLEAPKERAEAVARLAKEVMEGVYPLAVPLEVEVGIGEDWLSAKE", "test": "Charged nucleobase (aminoallyl-dUTP) as polymerase substrate", "format": "biochemical", "conditions": "dATP, dCTP, dGTP plus AA-dUTP", "experimental": "as §1, §2"}, "HIV-RT": {"target": "HIV-RT (Human immunodeficiency virus type 1 group M subtype B, UniProt P03366)", "test": "Charged nucleobase (aminoallyl-dUTP) as polymerase substrate", "format": "biochemical", "conditions": "dATP, dCTP, dGTP plus AA-dUTP", "experimental": "as §1, §2"}, "[1]": {"test": "Capillary electrophoresis of unlabeled nucleotides with Mg++", "format": "physicochemical", "experimental": "FIG. 14 illustrates the effect of Mg^++ on electrophoretic mobility of unlabeled nucleotides.\nElectrophoresis Results. A γ-dNTP (FIG. 13A) with the charge configuration N(0) F(+2) was synthesized and its electrophoretic mobility examined in an agarose gel as a function of Mg^++ concentration (FIG. 13B). As expected (FIG. 12B), its mobility changed from negative to positive with increasing Mg^++, passing through zero at about 3 mM Mg^++. A direct comparison with the calculation (FIG. 12B) is not possible because, while the gels contained the indicated Mg^++ concentrations, the samples (20 μL) loaded in each lane contained 10 mM Mg^++. The importance of attaching a (+2) charge to the γ-label (FIG. 13A) with respect to obtaining a bipolar switch mode (neg to pos) is illustrated by a capillary electrophoresis experiment with unlabeled dTDP and dTTP (FIG. 14). […] It is clear that additional positive charge can be added to the these nucleotides if one desires a negative to positive charge switch. This is what was done with the γ-dNTP of FIG. 13."}, "T7 polymerase exo-": {"target": "T1, T7 polymerase exo- (Escherichia phage T7, UniProt P00581, D5A/E7A)", "T1 construct": "made in house; host or cells: E. coli TOP 10", "test": "Steady-state kinetics, Km determination for dTTP", "format": "biochemical", "conditions": "Lineweaver-Burk plot; 5 sec at 20° C."}, "[2]": {"test": "Photodegradation and single molecule detection calculation", "conditions": "60 photons, 0.45% detection efficiency, 13,333 excitations"}, "HIV-1 RT": {"target": "HIV-1 RT (Human immunodeficiency virus type 1 group M subtype B, UniProt P03366)", "conditions": "50 μM dATP, dCTP, dGTP; 37° C. for 30 min", "protocol": "FIG. 6 illustrates the utilization of different γ-dNTPs by T7 Sequenase 2.0 and HIV polymerases. Samples contain 50 μM dATP, dCTP, dGTP and either (a) dUTP; (b) γ-dUTP-BodipyTR; (c) γ-dUTP-Fluorescein; or a control (d) omitting dUTP and its analogs. Incubation was at 37° C. for 30 min.\n18 commercially-available polymerases were screened for the utilization of γ-dUTP-BodipyTR."}},
  "data": [
    {"smiles": "NC/C=C/c1cn([C@H]2C[C@H](O)[C@@H](COP(=O)(O)OP(=O)(O)OP(=O)(O)O)O2)c(=O)[nH]c1=O", "note": "[Aminoallyl-dUTP]", "values": [
      {"measurement": "extension product with AA-dUTP", "setting": "T7 Sequenase 2.0", "result": "produced full-length product"},
      {"measurement": "extension product with AA-dUTP", "setting": "Klenow", "result": "stopped at the dUTP incorporation sites"},
      {"measurement": "extension product with AA-dUTP", "setting": "Taq", "result": "stopped at the dUTP incorporation sites"},
      {"measurement": "extension product with AA-dUTP", "setting": "HIV-RT", "result": "produced full-length product"}
    ]},
    {"smiles": "Cc1cn([C@H]2C[C@H](O)[C@@H](COP(=O)(O)OP(=O)(O)OP(=O)(O)O)O2)c(=O)[nH]c1=O", "note": "[dTTP]", "values": [
      {"measurement": "charge in presence of Mg++", "setting": "[1]", "result": "remained in negative territory"},
      {"measurement": "Km", "setting": "T7 polymerase exo-", "result": 13, "unit": "µM"}
    ]},
    {"smiles": "CN(C)c1ccc2c(-c3ccccc3C(=O)[O-])c3ccc(N(C)C)cc3[o+]c2c1", "note": "[TMR, tetramethylrhodamine]", "values": [
      {"measurement": "molecules escaping detection due to photodegradation", "setting": "[2]", "result": 0.44, "unit": "%"}
    ]},
    {"smiles": "O=c1ccn([C@H]2C[C@H](O)[C@@H](COP(=O)(O)OP(=O)(O)OP(=O)(O)O)O2)c(=O)[nH]1", "note": "[dUTP]", "values": [
      {"measurement": "incorporation of γ-dUTP analogs / dUTP (FIG. 6)", "setting": "HIV-1 RT", "result": "synthesized full-length product"}
    ]},
    {"smiles": "Cc1cn([C@H]2C[C@H](O)[C@@H](COP(=O)(O)OP(=O)(O)O)O2)c(=O)[nH]c1=O", "note": "[dTDP]", "values": [
      {"measurement": "charge in presence of Mg++", "setting": "[1]", "result": "remained in negative territory"}
    ]}
  ]
}
